In article PMC7732128, “Regulation of gene transcription by thyroid hormone receptor β agonists in clinical development for the treatment of non-alcoholic steatohepatitis (NASH)” (PLoS ONE, 2020):
“Also recorded” adds a separate entry of the source. Like-named read-outs stand apart in the source and are kept apart here.

Columns and labels:
HFD fed rats = assay: High-fat diet fed rat study: serum and hepatic lipid levels; format: in vivo
Description: Animals were purchased from Vital River Laboratory Animal Technology Co. Ltd. and experiments were conducted at Covance Pharmaceutical R&D (Shanghai) Co., Ltd. (China). Animals were group-housed in polycarbonate cages with corncob bedding under controlled temperature (21–25°C), humidity (40–70%), and a 12-hr light/dark cycle. All procedures performed were in compliance with local animal welfare legislation, Covance global policies and procedures, and the Guide for the Care and Use of Laboratory Animals.
(§1) Eighty-four male Sprague Dawley rats, approximately 8 to 11 weeks of age, were fed with either a normal diet, ND (D12450K: 10 kcal% fat, no sucrose), or high-fat diet, HFD (D12109C: 40 kcal% fat, 1.25 gm% cholesterol, 0.5 gm% sodium cholate, 12.5 gm% sucrose). After 12 days of diet consumption, baseline serum total cholesterol and low-density lipoprotein cholesterol (LDL-C) levels were measured with the cobas 6000 c501 Chemistry Analyzer (Roche) to confirm hypercholesterolemia in the HFD fed rats. Animals were then randomized into treatment groups.
(§2) Twenty-four hrs after dosing, animals were euthanized by CO2 inhalation and serum and plasma were collected along with liver tissue. Serum total cholesterol and LDL-C levels were determined as described above. […] Caudate lobes of the liver were used for analysis of hepatic total cholesterol (Abcam, ab65390) and triglyceride levels (Abcam, ab65336) via enzyme-linked immunosorbent assay. Right lateral lobes were stored in RNAlater (Invitrogen, AM7020) at -70°C until homogenization with the Scientz-48 TissueLyser LT for downstream gene expression analysis. RNA extraction was performed at WuXi AppTec (Hong Kong) Limited (China) with the RNeasy Mini Kit (Qiagen, 74106) and RNA concentration and quality was determined using the Nanodrop 2000 (Thermo Scientific); additional quality control was assessed with agarose gel electrophoresis. One μg total RNA from each sample was then reverse-transcribed using the High Capacity cDNA Reverse Transcription kit (Applied Biosystems, 4368814) and the resulting cDNA was diluted 1:5 with nuclease-free, distilled water. Gene expression was measured using TaqMan Fast Advanced Master Mix and the following TaqMan Gene Expression assays: Actb (Rn00667869_m1), Cpt1a (Rn00580702_m1), Dio1 (Rn00572183_m1), Me1 (Rn00561502_m1), Rplp1 (Rn03467157_gH), and Thrsp (Rn01511034_m1). Actb and Rplp1 served as control housekeeping genes. Ten μL reactions were run on the qTOWER³ 84. Relative quantification (RQ) of gene expression was calculated via the 2^−ΔΔCt method and statistical analysis was performed in GraphPad Prism 8.0 and Microsoft Excel.

[1] = High-fat diet fed rat study: plasma compound concentration (LC-MS/MS); format: in vivo; details: male, Sprague Dawley, po, HFD rats, read-out: Plasma AUC0-24hrs
Description: as §1
as §2, with “Ten μL reactions were run on the qTOWER³ 84.” left out

healthy volunteers = details: two weeks, ≥ 80 mg; cited from earlier work
[2] = test system: hepatic OATP1B1/B3 transporters; design: method as in PMID 19785645; details: cited from earlier work
GST-tagged THRα LBD = molecular target: T1, GST-tagged THRα LBD (Homo sapiens, UniProt P10827); assay: TR-FRET thyroid hormone receptor coactivator assay, THRα; format: biochemical; details: read-out: THRα EC50 Mean ± SEM
T1 construct: purchased Invitrogen
T1 sequence (P10827 163-410 isoform P10827-2 limits assumed, other chains not shown): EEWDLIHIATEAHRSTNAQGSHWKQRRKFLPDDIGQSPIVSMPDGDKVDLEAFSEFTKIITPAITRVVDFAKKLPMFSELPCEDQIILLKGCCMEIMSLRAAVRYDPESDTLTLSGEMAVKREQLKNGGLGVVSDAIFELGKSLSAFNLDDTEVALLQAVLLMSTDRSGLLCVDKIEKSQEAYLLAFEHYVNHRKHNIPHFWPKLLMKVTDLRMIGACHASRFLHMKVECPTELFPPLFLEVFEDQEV
From the text: A time-resolved FRET (TR-FRET)-based, biochemical assay was used as an initial screen to assess the ability of compounds to bind either THRα or β in vitro. […] Upon excitation of the terbium-labeled anti-GST antibody, energy is transferred to the fluorescein-labeled coactivator peptide and is detected as emission at 520 nm.
The assay procedure is based on the manufacturer’s protocol for LanthaScreen™ TR-FRET Thyroid Receptor beta Coactivator Assay (Invitrogen, PV4686) with slight, optimized modifications. Briefly, the assay was performed in 384-well, black microplate plates, protected from light. Test compounds were serially diluted in DMSO (1.0% final DMSO concentration) and added to the test plate. […]
In the TR-FRET thyroid hormone receptor coactivator assay, increasing concentrations of each compound was combined with the GST-tagged LBD of THRα or β, a coactivator peptide, and terbium-labeled anti-GST antibody. TR-FRET was then measured and dose-response curves were generated. […] Luminescence was measured and dose-response curves were generated. For both assays, calculated EC50 means ± SEM, n, and THRα EC50-to-THRβ EC50 ratios (α:β) are reported for each compound-THR subtype combination.

THRβ over THRα = details: from ligand-binding affinities (Kd or Ki); cited from earlier work
THRβ (α:β) = test system: THRβ (α:β); design: method as in PMID 32768645; details: coactivator recruitment assay; cited from earlier work
cholesterol-fed rat = test system: cholesterol-fed rat; design: method as in PMID 18975928; details: cited from earlier work
[3] = 0.5 mg/kg P.O. single dose, 24 hrs
[4] = 5.0 and 1.5 mg/kg P.O. single dose, 24 hrs post-dose

Row | AUC(0-t) ([1]; 0.5 mg/kg P.O. single dose) | AUC(0-t) ([1]; 1.5 mg/kg P.O. single dose) | AUC(0-t) ([1]; 5.0 mg/kg P.O. single dose) | EC50 (GST-tagged THRα LBD) | SMILES | effect on serum LDL-C (HFD fed rats; [3]) | effect on serum total cholesterol (HFD fed rats; [3]) | effect on serum triglyceride levels (HFD fed rats; [3]) | decrease in serum triglyceride levels (pre-dose vs 24 hrs post-dose) (HFD fed rats; 1.5 mg/kg P.O. single dose) | decrease in serum total cholesterol (pre-dose vs 24 hrs post-dose) (HFD fed rats; 5 mg/kg P.O. single dose) | decrease in serum triglyceride levels (pre-dose vs 24 hrs post-dose) (HFD fed rats; 5.0 mg/kg P.O. single dose) | effect on hepatic cholesterol levels (HFD fed rats; [4]) | effect on hepatic triglyceride levels (HFD fed rats; [4]) | reduction in LDL-C (healthy volunteers) | reduction in total cholesterol (healthy volunteers) | transporter substrate [2] | selectivity for THRβ over THRα (THRβ over THRα) | selectivity for THRβ (α:β) (THRβ (α:β)) | reduction in total cholesterol (cholesterol-fed rat; single dose 0.5 mg/kg) | decrease in total cholesterol (cholesterol-fed rat; single dose 3.0 mg/kg)
1 | 2600 ng·h/mL | 8200 ng·h/mL | 21700 ng·h/mL | – | CC(C)c1cc(Oc2c(Cl)cc(-n3nc(C#N)c(=O)[nH]c3=O)cc2Cl)n[nH]c1=O [MGL-3196, 2-[3,5-dichloro-4-(5-isopropyl-6-oxo-1,6-dihydropyridazin-3-yloxy)phenyl]-3,5-dioxo-2,3,4,5-tetrahydro[1,2,4]triazine-6-carbonitrile] | did not significantly lower | no significant effect; also recorded: did not significantly lower | did not have a significant effect; also recorded: did not significantly lower | 37.5% | 33.6% | 32.1% | did not significantly affect | did not significantly affect | 21.8–30.3% | 16.0–22.8% | substrate | – | – | – | –
2 | – | – | – | 0.0255 ± 0.007 µM | Cc1cc(OCP(=O)(O)O)cc(C)c1Cc1ccc(O)c(C(C)C)c1 [VK2809A] | – | – | – | – | – | – | – | – | – | – | – | 15.8 fold | 2.1 | – | –
3 | – | – | – | 0.253 ± 0.0407 µM | Cc1cc(OCP2(=O)OCC[C@@H](c3cccc(Cl)c3)O2)cc(C)c1Cc1ccc(O)c(C(C)C)c1 (some centres unmarked) [VK2809] | – | – | – | – | – | – | – | – | – | – | – | – | – | 36% | ≤ 55%
